Where a name gives a salt, the structure may show the parent alone.
Tests used:
[1] = tested on: gastrointestinal transit of a charcoal meal in the rat; assay: Charcoal propulsion test (gut motility) in rat; format: in vivo; conditions: oral
Procedure: The effect of a drug on gut motility can be studied by means of the charcoal propulsion test.
The method used was based on that described by Takemori et al. (J. Pharmacol. Exp. Ther. 169:39, 1969). Test treatments were administered orally 60 minutes prior to an oral dose of a 10% suspension of charcoal in 2.5% gum Arabic (2 ml/kg). Twenty minutes after dosing with charcoal, the rats were sacrificed and the entire gastrointestinal tract was removed quickly and carefully. The distance that the charcoal meal had traveled toward the caecum was measured and expressed as a percentage of the total gut length.

[2] = cited from earlier work
[3] = Comparative pharmacokinetic screening study in the monkey (relative Cmax of guanfacine); conditions: cynomolgus monkey, in vivo, po
Procedure: Blood samples were taken on 4 sampling occasions at various times up to 6 hours after administration and submitted to analysis for the parent drug and prodrug using a qualified LC-MS-MS assay.

N=C(N)NC(=O)Cc1c(Cl)cccc1Cl [Guanfacine, N-Amidino-2-(2,6-dichlorophenyl)acetamide monohydrochloride, reference compound]
% change in GI transit vs vehicle ([1]; Study 1, dose 0.1 mg/kg guanfacine free base equivalents): −52% | % change in GI transit vs vehicle ([1]; Study 1, dose 0.3 mg/kg guanfacine free base equivalents): −55% | % change in GI transit vs vehicle ([1]; Study 1, dose 1 mg/kg guanfacine free base equivalents): −47% | % change in GI transit vs vehicle ([1]; Study 2, dose 0.03 mg/kg guanfacine free base equivalents): −13% | % change in GI transit vs vehicle ([1]; Study 2, dose 0.1 mg/kg guanfacine free base equivalents): −41% | % change in GI transit vs vehicle ([1]; Study 2, dose 0.3 mg/kg guanfacine free base equivalents): −56% | reduction in the distance traveled by the charcoal plug within 20 minutes, compared to control group ([1]; 0.1 mg base/kg): 41-52% | bioavailability of guanfacine in man [2]: > 80% | bioavailability [3]: 35%

Reference: patent US20110065796A1 (SHIRE LLC, priority 2009, published 2011)
